pIC50: −log10 of the molar value. The source made the active and inactive calls. The calls are words filed in the database; no cut-off is given here.
What was measured:
Histone deacetylase 3 [1] = target: T1, Histone deacetylase 3 (Homo sapiens, UniProt O15379); assay: Inhibition of recombinant HDAC3 (unknown origin) using Boc-Lys(acetyl)-AMC as substrate preincubated for 1 hr followed by substrate addition and measured after 2 hrs by fluorescence based microplate reader analysis
Histone deacetylase 2 [2] = target: T2, Histone deacetylase 2 (Homo sapiens, UniProt Q92769); assay: Inhibition of recombinant HDAC2 (unknown origin) using Boc-Lys(acetyl)-AMC as substrate preincubated for 1 hr followed by substrate addition and measured after 2 hrs by fluorescence based microplate reader analysis
[3] = target: T3, Protein deacetylase HDAC6 (Homo sapiens, UniProt Q9UBN7); assay: Inhibition of recombinant HDAC6 (unknown origin) using Boc-Lys(acetyl)-AMC as substrate preincubated for 1 hr followed by substrate addition and measured after 2 hrs by fluorescence based microplate reader analysis
T3 sequence (Q9UBN7 whole entry): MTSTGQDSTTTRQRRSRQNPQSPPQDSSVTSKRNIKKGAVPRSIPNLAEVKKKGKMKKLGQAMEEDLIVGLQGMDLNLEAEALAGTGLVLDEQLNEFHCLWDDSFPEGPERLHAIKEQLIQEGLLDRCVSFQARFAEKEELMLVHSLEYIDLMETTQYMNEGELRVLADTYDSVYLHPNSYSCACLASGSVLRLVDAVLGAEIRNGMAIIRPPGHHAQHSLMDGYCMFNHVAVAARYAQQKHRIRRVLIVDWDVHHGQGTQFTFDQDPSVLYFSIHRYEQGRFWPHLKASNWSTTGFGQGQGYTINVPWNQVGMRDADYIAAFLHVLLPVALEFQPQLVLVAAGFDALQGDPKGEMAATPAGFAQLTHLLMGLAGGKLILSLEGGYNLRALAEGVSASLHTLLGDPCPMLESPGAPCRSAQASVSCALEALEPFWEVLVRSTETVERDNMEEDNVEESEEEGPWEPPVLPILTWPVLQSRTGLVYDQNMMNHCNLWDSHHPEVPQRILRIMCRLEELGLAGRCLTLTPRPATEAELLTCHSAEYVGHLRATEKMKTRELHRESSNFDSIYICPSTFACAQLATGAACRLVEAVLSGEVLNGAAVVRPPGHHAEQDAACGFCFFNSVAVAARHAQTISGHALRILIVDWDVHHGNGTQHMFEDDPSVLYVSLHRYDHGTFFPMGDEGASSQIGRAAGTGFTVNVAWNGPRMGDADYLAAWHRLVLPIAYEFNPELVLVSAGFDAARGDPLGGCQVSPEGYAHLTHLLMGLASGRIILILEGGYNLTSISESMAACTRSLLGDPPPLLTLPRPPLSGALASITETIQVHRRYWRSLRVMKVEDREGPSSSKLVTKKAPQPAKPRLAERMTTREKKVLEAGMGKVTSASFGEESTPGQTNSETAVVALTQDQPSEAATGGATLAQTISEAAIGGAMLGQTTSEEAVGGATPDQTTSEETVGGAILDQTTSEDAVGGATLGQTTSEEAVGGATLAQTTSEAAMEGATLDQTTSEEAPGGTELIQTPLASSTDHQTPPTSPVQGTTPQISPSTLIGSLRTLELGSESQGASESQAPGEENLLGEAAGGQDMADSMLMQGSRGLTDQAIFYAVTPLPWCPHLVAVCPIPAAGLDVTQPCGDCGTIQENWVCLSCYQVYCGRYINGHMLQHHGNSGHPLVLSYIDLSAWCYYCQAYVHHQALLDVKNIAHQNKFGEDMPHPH

Histone deacetylase 1 [4] = target: T4, Histone deacetylase 1 (Homo sapiens, UniProt Q13547); assay: Inhibition of recombinant HDAC1 (unknown origin) using Boc-Lys(acetyl)-AMC as substrate preincubated for 1 hr followed by substrate addition and measured after 2 hrs by fluorescence based microplate reader analysis
Histone deacetylase 3 [5] = target: T1, Histone deacetylase 3; assay: Inhibition of HDAC3 (unknown origin)
Histone deacetylase 2 [6] = target: T2, Histone deacetylase 2; assay: Inhibition of HDAC2 (unknown origin)
Homo sapiens = organism: Homo sapiens; assay: Selectivity index, ratio of IC50 for recombinant HDAC1(unknown origin) to IC50 for full length recombinant human HDAC6
J774.A1 [7] = assay: Inhibition of NLRP3 inflammasome activation in mouse J774.A1 cells assessed as cleavage of pro-caspase 1 to p20 measured at 20 microM after […] by Western blot analysis; type: functional, cell-based; conditions: DDE = dose-dependent effect
J774.A1 [8] = assay: Inhibition of NLRP3 inflammasome activation in mouse J774.A1 cells assessed as cleavage of pro-caspase 1 to p20 measured at 5 to 20 microM after […] by Western blot analysis; type: functional, cell-based; conditions: dose 5-20 µM
[9] = Cmax in CD-1 mouse at 3 mg/kg, iv measured after 0.083 to 24 hrs by LC-MS/MS analysis; type: ADME, organism-based; design: time upper 24 hrs, time lower 0.083 hrs, dose 3 mg/kg, route iv; conditions: in vivo
[10] = Cmax in CD-1 mouse at 30 mg/kg, po measured after 0.083 to 24 hrs by LC-MS/MS analysis; type: ADME, organism-based; design: time upper 24 hrs, time lower 0.083 hrs, dose 30 mg/kg, route po; conditions: in vivo
J774.A1 [11] = assay: Inhibition of HDAC6/dynein interaction in mouse J774.A1 cells measured after 8 hrs by co-immunoprecipitation based Western blotting analysis; type: cell-based
[12] = AUC(0 to infinity) in CD-1 mouse at 3 mg/kg, iv measured after 0.083 to 24 hrs by LC-MS/MS analysis; type: ADME, organism-based; design: dose 3 mg/kg, time upper 24 hrs, time lower 0.083 hrs, route iv; conditions: in vivo
[13] = AUC(0 to infinity) in CD-1 mouse at 30 mg/kg, po measured after 0.083 to 24 hrs by LC-MS/MS analysis; type: ADME, organism-based; design: dose 30 mg/kg, time upper 24 hrs, time lower 0.083 hrs, route po; conditions: in vivo
[14] = Inhibition of HDAC11(unknown origin) preincubated for 1 hr followed by substrate addition and measured after 2 hrs by fluorescence based microplate reader analysis; design: species or system Homo sapiens
Histone deacetylase 1 [15] = target: T4, Histone deacetylase 1; assay: Inhibition of HDAC1 (unknown origin)
[16] = Half life in CD-1 mouse at 5 mg/kg, iv measured after 0.083 to 24 hrs by LC-MS/MS analysis; type: ADME, organism-based; conditions: in vivo, time 0.083-24 hrs
[17] = Cmax in CD-1 mouse at 5 mg/kg, iv measured after 0.083 to 24 hrs by LC-MS/MS analysis; type: ADME, organism-based; design: dose 5 mg/kg, time 0.083-24 hrs, route iv; conditions: in vivo
[18] = AUC(0 to infinity) in CD-1 mouse at 5 mg/kg, iv measured after 0.083 to 24 hrs by LC-MS/MS analysis; type: ADME, organism-based; design: dose 5 mg/kg, time upper 24 hrs, time lower 0.083 hrs, route iv; conditions: in vivo

T4 sequence (Q13547 whole entry): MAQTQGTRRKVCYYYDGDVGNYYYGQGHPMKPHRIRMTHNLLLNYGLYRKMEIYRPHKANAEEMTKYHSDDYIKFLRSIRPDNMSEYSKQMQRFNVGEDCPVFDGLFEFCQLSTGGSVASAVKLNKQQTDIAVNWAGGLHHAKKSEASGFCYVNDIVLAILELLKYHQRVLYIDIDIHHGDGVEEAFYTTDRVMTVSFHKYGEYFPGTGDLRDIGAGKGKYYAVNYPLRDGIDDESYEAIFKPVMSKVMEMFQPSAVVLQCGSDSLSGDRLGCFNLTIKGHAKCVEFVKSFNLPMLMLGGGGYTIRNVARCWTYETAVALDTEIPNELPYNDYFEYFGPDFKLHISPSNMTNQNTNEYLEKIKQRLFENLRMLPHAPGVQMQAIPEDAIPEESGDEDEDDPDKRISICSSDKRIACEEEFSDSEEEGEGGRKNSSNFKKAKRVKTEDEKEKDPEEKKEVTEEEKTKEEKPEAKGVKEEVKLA
T1 sequence (O15379 whole entry): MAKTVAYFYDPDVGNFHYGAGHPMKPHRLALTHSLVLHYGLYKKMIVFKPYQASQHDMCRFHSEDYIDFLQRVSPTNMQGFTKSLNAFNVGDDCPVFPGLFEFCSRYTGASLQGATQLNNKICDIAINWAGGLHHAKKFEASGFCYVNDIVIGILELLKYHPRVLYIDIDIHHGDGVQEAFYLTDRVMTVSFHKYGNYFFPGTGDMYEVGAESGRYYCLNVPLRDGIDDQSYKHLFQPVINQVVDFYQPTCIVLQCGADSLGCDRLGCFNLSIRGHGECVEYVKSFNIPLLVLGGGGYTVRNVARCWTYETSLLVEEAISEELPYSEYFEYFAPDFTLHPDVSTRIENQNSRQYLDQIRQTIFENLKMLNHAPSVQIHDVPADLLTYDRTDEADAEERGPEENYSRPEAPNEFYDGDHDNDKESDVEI
T2 sequence (Q92769 whole entry): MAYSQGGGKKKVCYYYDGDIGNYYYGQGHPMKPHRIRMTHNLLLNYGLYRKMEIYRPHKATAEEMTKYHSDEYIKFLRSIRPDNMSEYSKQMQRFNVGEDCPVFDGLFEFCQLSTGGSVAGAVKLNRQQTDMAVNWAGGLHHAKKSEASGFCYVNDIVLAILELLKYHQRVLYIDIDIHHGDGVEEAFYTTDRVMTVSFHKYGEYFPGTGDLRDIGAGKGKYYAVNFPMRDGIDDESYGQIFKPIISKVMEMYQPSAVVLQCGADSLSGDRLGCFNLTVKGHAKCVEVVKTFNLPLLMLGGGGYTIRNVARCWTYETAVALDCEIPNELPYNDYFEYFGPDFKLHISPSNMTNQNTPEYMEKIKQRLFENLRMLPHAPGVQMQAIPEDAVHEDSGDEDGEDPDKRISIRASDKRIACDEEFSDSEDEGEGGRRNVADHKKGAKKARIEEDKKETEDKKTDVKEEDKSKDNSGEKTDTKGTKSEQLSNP

| pIC50 (Histone deacetylase 3 [1]) | pIC50 (Histone deacetylase 2 [2]) | pIC50 [3] | pIC50 (Histone deacetylase 1 [4]) | Ratio IC50 (Homo sapiens) | SMILES | other results |
| --- | --- | --- | --- | --- | --- | --- |
| 9.05 | 8.22 | 7.47 | 8.52 | – | CCNNC(=O)c1ccc(CNC(=O)Nc2cccc3cccnc23)cc1 | – |
| 6.66 | 6.04 | 6.35 | 6.27 | 1.2 | CCNNC(=O)c1ccc(Cn2ccc3cc(C(=O)c4ccc(OC)cc4)ccc32)cc1 | – |
| 5.80 | 5.63 | 7.43 | 5.54 | 77 | CCNNC(=O)c1ccc(Cn2c3ccccc3c3cccnc32)cc1 | – |
| 7.11 | 5.92 | 6.84 | 5.77 | 11 | CCNNC(=O)c1ccc(Cn2c(=O)n(CCc3ccccc3)c(=O)c3ccccc32)cc1 | – |
| – | – | < 5.30 | 7.89 | 0.002 | CCCNNC(=O)c1ccc(CNC(=O)c2ccccc2)cc1 | – |
| < 5.30 | 6.50 | < 5.30 | < 5.30 | – | CCNNC(=O)c1csc(-c2cccnc2)n1 | – |
| < 5.30 | < 5.30 | < 5.30 | < 5.30 | – | CCNNC(=O)c1coc(-c2ccc(Br)cc2)c1 | – |
| 5.40 | < 5.30 | 6.76 | < 5.30 | > 28 | CCNNC(=O)c1ccc(CN2c3ccccc3Sc3ccccc32)cc1 | – |
| – | – | – | 5.18 | – | O=C(CS)NCCCCNc1c(Cl)cc(Cl)c2cccnc12 | pIC50 (Histone deacetylase 1 [15]): 5.18 |
| 5.50 | < 5.30 | 6.07 | < 5.30 | > 6 | CCNNC(=O)c1ccc(CN2c3ccccc3Oc3ccccc32)cc1 | – |
| < 5.30 | < 5.30 | 6.98 | 5.41 | 37 | CCNNC(=O)c1ccc(CN2c3ccccc3CC(=O)c3ccccc32)cc1 | – |
| < 5.30 | 5.36 | 7.14 | < 5.30 | > 68 | CCNNC(=O)c1ccc(Cn2c3ccccc3c3ccncc32)cc1 | – |
| 7.59 | 7.39 | 7.80 | 7.10 | 5 | CCNNC(=O)c1ccc(Cn2nnnc2-c2cccs2)cc1 | – |
| 6.83 | 7.09 | 7.39 | 6.18 | – | CCNNC(=O)c1ccc(CNc2cccc3cccnc23)cc1 | – |
| 5.84 | < 5.30 | 6.63 | 5.50 | 13 | CCNNC(=O)c1ccc(CN2c3ccccc3Cc3ccccc32)cc1 | – |
| – | – | 6.06 | 5.34 | 5.2 | CNNC(=O)c1ccc(CNC(=O)c2ccccc2)cc1 | – |
| 5.94 | < 5.30 | 7.33 | 5.65 | 48 | CCNNC(=O)c1ccc(CN2c3ccccc3C=Cc3nc(C)nc(C)c32)cc1 | – |

Further lines, the compound ahead of its results:

| SMILES | pIC50 (Histone deacetylase 3 [1]) | pIC50 (Histone deacetylase 2 [2]) | pIC50 [3] | pIC50 (Histone deacetylase 1 [4]) | Ratio IC50 (Homo sapiens) | other results |
| --- | --- | --- | --- | --- | --- | --- |
| O=C(NO)c1ccc(CN2CCCc3ccccc32)cc1 | – | – | – | – | – | pIC50 (Histone deacetylase 3 [5]): 4.53; pIC50 (Histone deacetylase 2 [6]): 4.48 |
| CCNNC(=O)c1ccc(Cn2c3ccccc3c3ccccc32)cc1 | 5.63 | < 5.30 | 6.44 | < 5.30 | > 14 | – |
| CNS(=O)(=O)c1ccc(CCNC(=O)c2cc(Cl)ccc2OC)cc1 | – | – | – | – | – | inhibition (J774.A1 [7]): Dde; Activity (J774.A1 [8]): Active |
| CN1CCc2c(c3ccccc3n2Cc2ccc(C(=O)NO)cc2)C1 [TUBASTATIN A] | – | – | – | – | – | Cmax [9]: 1240 ng/mL; Cmax [10]: 135 ng/mL; inhibition (J774.A1 [11]): Active; AUC [12]: 227 ng·h/mL; AUC [13]: 134 ng·h/mL; pIC50 [14]: < 5.30 |
| CCNNC(=O)c1ccc(CN2c3ccccc3C=Cc3ccccc32)cc1 | 5.79 | < 5.30 | 7.38 | 5.64 | 54 | – |
| CCNNC(=O)c1ccc(Cn2c3ccccc3c3cnccc32)cc1 | 5.34 | 5.49 | 6.96 | < 5.30 | > 45 | – |
| CCNNC(=O)c1ccc(CN2c3ccccc3C=Cc3ccc(F)cc32)cc1 | 6.25 | 5.39 | 7.43 | 5.60 | 68 | – |
| CCCCN(Cc1ccc(C(=O)NO)cc1)C(=O)Nc1ccccc1 [NEXTURASTAT A] | – | – | – | – | – | pIC50 (Histone deacetylase 3 [5]): 5.22 |
| O=C(NO)c1ccc(CC(=O)N(CCO)c2ccccc2)cc1 | – | – | – | – | – | pIC50 (Histone deacetylase 3 [5]): 5.68; pIC50 (Histone deacetylase 1 [15]): 6.07; pIC50 (Histone deacetylase 2 [6]): 5.66 |
| CCNNC(=O)c1ccc(CN2c3ccccc3C=Cc3ccc(C(F)(F)F)cc32)cc1 | 5.73 | < 5.30 | 6.76 | < 5.30 | > 29 | – |
| CCCCN(Cc1ccc(C(=O)NNCC)cc1)C(=O)Nc1ccccc1 | 6.72 | 7.11 | 6.88 | 6.47 | 2.5 | – |
| O=C(CCCCCCNC(=O)c1cnc(N(c2ccccc2)c2ccccc2)nc1)NO [RICOLINOSTAT] | – | – | – | – | – | half-life [16]: 2.62 h; Cmax [17]: 372 ng/mL; pIC50 [14]: < 5.30; AUC(0-inf) [18]: 342 ng·h/mL |
| CCNNC(=O)c1ccc(NC(=O)Nc2cccc3cccnc23)cc1 | 6.35 | 6.63 | 5.82 | 5.84 | 0.9 | – |
| CCNNC(=O)c1ccc(Cn2c3c(c4ccccc42)CCCC3)cc1 | < 5.30 | < 5.30 | 6.34 | < 5.30 | > 11 | – |
| CCNNC(=O)c1ccc(CN2c3ccccc3C=Cc3ccc(C)cc32)cc1 | 6.33 | 5.36 | 7.12 | 5.64 | 30 | – |
| CCNNC(=O)c1ccc(CNC(=O)c2ccccc2)cc1 | – | – | 7.11 | 6.40 | 5.1 | – |
| CCNNC(=O)c1ccc(CN2c3ccccc3CCc3ccccc32)cc1 | 5.40 | < 5.30 | 6.60 | < 5.30 | > 20 | – |
| CCNNC(=O)c1ccc(CN2c3ccccc3Sc3cccnc32)cc1 | 5.75 | < 5.30 | 7.21 | 5.40 | 65 | – |
| CCCCN(Cc1ccc(C(=O)NNCC)cc1)C(=O)c1ccccc1 | 6.35 | 6.73 | 6.72 | 5.90 | 6.7 | – |

From ChEMBL document CHEMBL5113527, “First-in-Class Hydrazide-Based HDAC6 Selective Inhibitor with Potent Oral Anti-Inflammatory Activity by Attenuating NLRP3 Inflammasome Activation” (J Med Chem, 2022)
